Experimental data from patent US20240124427A1, “HYDROXYHETEROCYCLOALKANE-CARBAMOYL DERIVATIVES” (Idorsia Pharmaceuticals Ltd, priority 2021, published 2024).

Target: human Gal-3 (hGal-3) (Homo sapiens (Human), UniProt P17931)
Experiment: Competitive binding assay: biotinylated hGal-3 binding to microplate-adsorbed asialofetuin (ASF)
Settings: Activity on hGal-3; mean values of several measurements; mixture of diastereomers measured where not separated
Description: The inhibitory activity of compounds is determined in competitive binding assays. This spectrophotometric assay measures the binding of biotinylated human Gal-3 (hGal-3) or human Gal-1 (hGal-1), respectively, to a microplate-adsorbed glycoprotein, asialofetuin (ASF) (Proc Natl Acad Sci USA. 2013 Mar 26;110(13):5052-7.). Alternatively, and preferably, a human Gal-1 version in which all six cysteines are substituted by serines may be used.
Briefly, compounds are serially diluted in DMSO (working dilutions).
Plates are incubated for 3 hours at 4° C., then washed with cold assay buffer (3×50 uL), incubated for 1 hour with 25 μL/well of a streptavidin-peroxidase solution (diluted in assay buffer to 80 ng/mL) at 4° C., followed by further washing steps with assay buffer (3×50 uL). Finally, 25 μL/well of ABTS substrate is added.
The calculated IC50 values may fluctuate depending on the daily assay performance. Fluctuations of this kind are known to those skilled in the art. IC50 values from several measurements are given as mean values.

Chain of human Gal-3 (hGal-3) (P17931 whole entry): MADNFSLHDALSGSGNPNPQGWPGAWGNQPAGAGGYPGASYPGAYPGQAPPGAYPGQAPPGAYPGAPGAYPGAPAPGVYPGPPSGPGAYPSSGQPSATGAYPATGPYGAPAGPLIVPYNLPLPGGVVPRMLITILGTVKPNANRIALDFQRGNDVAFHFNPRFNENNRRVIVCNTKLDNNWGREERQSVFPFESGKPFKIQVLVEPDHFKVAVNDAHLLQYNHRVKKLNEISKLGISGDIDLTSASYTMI

Row | IC50 | Compound
1 | 186 nM | CO[C@@H]1[C@@H](n2cc(-c3cc(F)c(F)c(F)c3)nn2)[C@@H](O)[C@@H](CO)O[C@H]1C(=O)N(c1cc(C)cc(Br)c1)[C@@H]1COC[C@H]1O [Example 37, (2R,3R,4S,5R,6R)-N-(3-bromo-5-methylphenyl)-5-hydroxy-6-(hydroxymethyl)-N-((3R,4S)-4-hydroxytetrahydrofuran-3-yl)-3-methoxy-4-(4-(3,4,5-trifluorophenyl)-1H-1,2,3-triazol-1-yl)tetrahydro-2H-pyran-2-carboxamide]
2 | 113 nM | COc1cc(C#N)cc(N(C(=O)[C@@H]2O[C@H](CO)[C@H](O)[C@H](n3cc(-c4cc(F)c(F)c(F)c4)nn3)[C@H]2OC)[C@@H]2COC[C@H]2O)c1 [Example 38, (2R,3R,4S,5R,6R)-N-(3-cyano-5-methoxyphenyl)-5-hydroxy-6-(hydroxymethyl)-N-((3R,4S)-4-hydroxytetrahydrofuran-3-yl)-3-methoxy-4-(4-(3,4,5-trifluorophenyl)-1H-1,2,3-triazol-1-yl)tetrahydro-2H-pyran-2-carboxamide]
3 | 69 nM | CO[C@@H]1[C@@H](n2cc(-c3cc(F)c(F)c(F)c3)nn2)[C@@H](O)[C@@H](CO)O[C@H]1C(=O)N(c1cc(C)cc(C#N)c1)[C@@H]1COC[C@H]1O [Example 39, (2R,3R,4S,5R,6R)-N-(3-cyano-5-methylphenyl)-5-hydroxy-6-(hydroxymethyl)-N-((3R,4S)-4-hydroxytetrahydrofuran-3-yl)-3-methoxy-4-(4-(3,4,5-trifluorophenyl)-1H-1,2,3-triazol-1-yl)tetrahydro-2H-pyran-2-carboxamide]
4 | 145 nM | CO[C@@H]1[C@@H](n2cc(-c3cc(F)c(F)c(F)c3)nn2)[C@@H](O)[C@@H](CO)O[C@H]1C(=O)N(c1cc(F)cc(C#N)c1)[C@@H]1COC[C@H]1O [Example 40, (2R,3R,4S,5R,6R)-N-(3-cyano-5-fluorophenyl)-5-hydroxy-6-(hydroxymethyl)-N-((3R,4S)-4-hydroxytetrahydrofuran-3-yl)-3-methoxy-4-(4-(3,4,5-trifluorophenyl)-1H-1,2,3-triazol-1-yl)tetrahydro-2H-pyran-2-carboxamide]
5 | 63 nM | CO[C@@H]1[C@@H](n2cc(-c3ccc(Br)c(F)c3F)nn2)[C@@H](O)[C@@H](CO)O[C@H]1C(=O)N(c1cc(Cl)cc(Cl)c1)[C@@H]1COC[C@H]1O [Example 41, (2R,3R,4S,5R,6R)-4-(4-(4-bromo-2,3-difluorophenyl)-1H-1,2,3-triazol-1-yl)-N-(3,5-dichlorophenyl)-5-hydroxy-6-(hydroxymethyl)-N-((3R,4S)-4-hydroxytetrahydrofuran-3-yl)-3-methoxytetrahydro-2H-pyran-2-carboxamide]
6 | 37 nM | CO[C@@H]1[C@@H](n2cc(-c3ccc(Br)c(F)c3F)nn2)[C@@H](O)[C@@H](CO)O[C@H]1C(=O)N(c1cc(Br)cc(C#N)c1)[C@@H]1COC[C@H]1O [Example 42, (2R,3R,4S,5R,6R)-4-(4-(4-bromo-2,3-difluorophenyl)-1H-1,2,3-triazol-1-yl)-N-(3-bromo-5-cyanophenyl)-5-hydroxy-6-(hydroxymethyl)-N-((3R,4S)-4-hydroxytetrahydrofuran-3-yl)-3-methoxytetrahydro-2H-pyran-2-carboxamide]
7 | 33 nM | CO[C@@H]1[C@@H](n2cc(-c3ccc(Br)c(F)c3F)nn2)[C@@H](O)[C@@H](CO)O[C@H]1C(=O)N(c1cc(C)cc(Br)c1)[C@@H]1COC[C@H]1O [Example 43, (2R,3R,4S,5R,6R)-4-(4-(4-bromo-2,3-difluorophenyl)-1H-1,2,3-triazol-1-yl)-N-(3-bromo-5-methylphenyl)-5-hydroxy-6-(hydroxymethyl)-N-((3R,4S)-4-hydroxytetrahydrofuran-3-yl)-3-methoxytetrahydro-2H-pyran-2-carboxamide]
8 | 81 nM | CO[C@@H]1[C@@H](n2cc(-c3cc(F)c(C)c(F)c3)nn2)[C@@H](O)[C@@H](CO)O[C@H]1C(=O)N(c1cc(Cl)cc(Cl)c1)[C@@H]1COC[C@H]1O [Example 44, (2R,3R,4S,5R,6R)-N-(3,5-dichlorophenyl)-4-(4-(3,5-difluoro-4-methylphenyl)-1H-1,2,3-triazol-1-yl)-5-hydroxy-6-(hydroxymethyl)-N-((3R,4S)-4-hydroxytetrahydrofuran-3-yl)-3-methoxytetrahydro-2H-pyran-2-carboxamide]
9 | 59 nM | CO[C@@H]1[C@@H](n2cc(-c3cc(F)c(C)c(F)c3)nn2)[C@@H](O)[C@@H](CO)O[C@H]1C(=O)N(c1cc(Br)cc(Br)c1)[C@@H]1COC[C@H]1O [Example 45, (2R,3R,4S,5R,6R)-N-(3,5-dibromophenyl)-4-(4-(3,5-difluoro-4-methylphenyl)-1H-1,2,3-triazol-1-yl)-5-hydroxy-6-(hydroxymethyl)-N-((3R,4S)-4-hydroxytetrahydrofuran-3-yl)-3-methoxytetrahydro-2H-pyran-2-carboxamide]
10 | 81 nM | CO[C@@H]1[C@@H](n2cc(-c3cc(F)c(C)c(F)c3)nn2)[C@@H](O)[C@@H](CO)O[C@H]1C(=O)N(c1cc(Br)cc(C#N)c1)[C@@H]1COC[C@H]1O [Example 46, (2R,3R,4S,5R,6R)-N-(3-bromo-5-cyanophenyl)-4-(4-(3,5-difluoro-4-methylphenyl)-1H-1,2,3-triazol-1-yl)-5-hydroxy-6-(hydroxymethyl)-N-((3R,4S)-4-hydroxytetrahydrofuran-3-yl)-3-methoxytetrahydro-2H-pyran-2-carboxamide]
11 | 72 nM | CO[C@@H]1[C@@H](n2cc(-c3cc(F)c(C)c(F)c3)nn2)[C@@H](O)[C@@H](CO)O[C@H]1C(=O)N(c1cc(C)cc(Br)c1)[C@@H]1COC[C@H]1O [Example 47, (2R,3R,4S,5R,6R)-N-(3-bromo-5-methylphenyl)-4-(4-(3,5-difluoro-4-methylphenyl)-1H-1,2,3-triazol-1-yl)-5-hydroxy-6-(hydroxymethyl)-N-((3R,4S)-4-hydroxytetrahydrofuran-3-yl)-3-methoxytetrahydro-2H-pyran-2-carboxamide]
12 | 29 nM | CO[C@@H]1[C@@H](n2cc(-c3ccc(C)c(F)c3F)nn2)[C@@H](O)[C@@H](CO)O[C@H]1C(=O)N(c1cc(Cl)cc(Cl)c1)[C@@H]1COC[C@H]1O [Example 48, (2R,3R,4S,5R,6R)-N-(3,5-dichlorophenyl)-4-(4-(2,3-difluoro-4-methylphenyl)-1H-1,2,3-triazol-1-yl)-5-hydroxy-6-(hydroxymethyl)-N-((3R,4S)-4-hydroxytetrahydrofuran-3-yl)-3-methoxytetrahydro-2H-pyran-2-carboxamide]
13 | 18 nM | CO[C@@H]1[C@@H](n2cc(-c3ccc(C)c(F)c3F)nn2)[C@@H](O)[C@@H](CO)O[C@H]1C(=O)N(c1cc(Br)cc(C#N)c1)[C@@H]1COC[C@H]1O [Example 49, (2R,3R,4S,5R,6R)-N-(3-bromo-5-cyanophenyl)-4-(4-(2,3-difluoro-4-methylphenyl)-1H-1,2,3-triazol-1-yl)-5-hydroxy-6-(hydroxymethyl)-N-((3R,4S)-4-hydroxytetrahydrofuran-3-yl)-3-methoxytetrahydro-2H-pyran-2-carboxamide]
14 | 34 nM | CO[C@@H]1[C@@H](n2cc(-c3ccc(C)c(F)c3F)nn2)[C@@H](O)[C@@H](CO)O[C@H]1C(=O)N(c1cc(C)cc(Br)c1)[C@@H]1COC[C@H]1O [Example 50, (2R,3R,4S,5R,6R)-N-(3-bromo-5-methylphenyl)-4-(4-(2,3-difluoro-4-methylphenyl)-1H-1,2,3-triazol-1-yl)-5-hydroxy-6-(hydroxymethyl)-N-((3R,4S)-4-hydroxytetrahydrofuran-3-yl)-3-methoxytetrahydro-2H-pyran-2-carboxamide]
15 | 73 nM | CO[C@@H]1[C@@H](n2cc(-c3cc(F)c(Cl)c(F)c3)nn2)[C@@H](O)[C@@H](CO)O[C@H]1C(=O)N(c1cc(Cl)cc(Cl)c1)[C@@H]1COC[C@H]1O [Example 51, (2R,3R,4S,5R,6R)-4-(4-(4-chloro-3,5-difluorophenyl)-1H-1,2,3-triazol-1-yl)-N-(3,5-dichlorophenyl)-5-hydroxy-6-(hydroxymethyl)-N-((3R,4S)-4-hydroxytetrahydrofuran-3-yl)-3-methoxytetrahydro-2H-pyran-2-carboxamide]
16 | 86 nM | CO[C@@H]1[C@@H](n2cc(-c3cc(F)c(Cl)c(F)c3)nn2)[C@@H](O)[C@@H](CO)O[C@H]1C(=O)N(c1cc(Br)cc(Br)c1)[C@@H]1COC[C@H]1O [Example 52, (2R,3R,4S,5R,6R)-4-(4-(4-chloro-3,5-difluorophenyl)-1H-1,2,3-triazol-1-yl)-N-(3,5-dibromophenyl)-5-hydroxy-6-(hydroxymethyl)-N-((3R,4S)-4-hydroxytetrahydrofuran-3-yl)-3-methoxytetrahydro-2H-pyran-2-carboxamide]
17 | 89 nM | CO[C@@H]1[C@@H](n2cc(-c3cc(F)c(Cl)c(F)c3)nn2)[C@@H](O)[C@@H](CO)O[C@H]1C(=O)N(c1cc(C)cc(Br)c1)[C@@H]1COC[C@H]1O [Example 54, (2R,3R,4S,5R,6R)-N-(3-bromo-5-methylphenyl)-4-(4-(4-chloro-3,5-difluorophenyl)-1H-1,2,3-triazol-1-yl)-5-hydroxy-6-(hydroxymethyl)-N-((3R,4S)-4-hydroxytetrahydrofuran-3-yl)-3-methoxytetrahydro-2H-pyran-2-carboxamide]
18 | 164 nM | CO[C@@H]1[C@@H](n2cc(-c3ccc(Cl)c(Cl)c3)nn2)[C@@H](O)[C@@H](CO)O[C@H]1C(=O)N(c1cc(Cl)cc(Cl)c1)[C@@H]1COC[C@H]1O [Example 55, (2R,3R,4S,5R,6R)-N-(3,5-dichlorophenyl)-4-(4-(3,4-dichlorophenyl)-1H-1,2,3-triazol-1-yl)-5-hydroxy-6-(hydroxymethyl)-N-((3R,4S)-4-hydroxytetrahydrofuran-3-yl)-3-methoxytetrahydro-2H-pyran-2-carboxamide]
